Key:
HCC70 cells = experiment: Inhibition of proliferation of HCC70 cells (CyQUANT Direct, 72 hour); type: cell-based, human; details: read-out: Inhibition of Proliferation of HCC70 Cells (calculated IC50)
Experimental: HCC70 cells: HCC70 cells are a cell line derived from human triple negative breast cancer. Representative compounds of the invention were tested at different concentrations (from 4 μM to […]; 0.5 log serial dilutions) for their ability to inhibit the proliferation of HCC70 cells. Known CDK inhibitors dinaciclib or N-((1S,3R)-3-((5-chloro-4-(1H-indol-3-yl) pyrimidin-2-yl)amino)cyclohexyl)-5-((E)-4-(dimethylamino)but-2-enamido)picolinamide and triptolide were used as positive controls. Cells were grown in ATCC-formulated RPMI-1640 Medium (ATCC 30-2001)+10% FBS. The cells were cultured at 37° C. in a humidified chamber in the presence of 5% CO2. Proliferation assays were conducted over a 72 hour time period. CyQUANT® Direct Cell Proliferation Assay (Life Technologies, Chicago, Ill. USA) was used to assess the anti-proliferative effects of the compounds following manufacturer's directions and utilizing the reagents supplied with the CyQUANT® Direct Cell kit.

CDK9/Cyclin T1 complex = CDK9/Cyclin T1 complex (Homo sapiens, UniProt P50750); experiment: CDK9 kinase inhibition assay (Caliper/LabChip EZ Reader); type: biochemical; details: CDK9/Cyclin T1 8 nM, ATP 2 mM, 15 min at 27° C.
How it was run: (§1)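 Incubation times were set for ~20% (±5%) peptide phosphorylation by uninhibited enzyme: CDK7 35 min, CDK2 35 min (0.5 nM complex, 2 μM 5-FAM-CDK7tide, 2 mM MgCl2), CDK12 3 hr (50 nM, 2 μM 5-FAM-CDK9tide, 2 mM MgCl2), CDK9 15 min (8 nM, 2 μM 5-FAM-CDK9tide, 10 mM MgCl2). Read-out on LabChip EZ Reader, 27° C.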

CDK2/Cyclin E1 complex = CDK2/Cyclin E1 complex (Homo sapiens, UniProt P24941); experiment: CDK2 kinase inhibition assay (Caliper/LabChip EZ Reader); type: biochemical; details: CDK2/Cyclin E1 0.5 nM, ATP 2 mM, 35 min at 27° C.
How it was run: as §1

[1] = target: T1, CDK12 (aa686-1082)/Cyclin K complex (Homo sapiens, UniProt Q9NYV4); experiment: CDK12 kinase inhibition assay (Caliper/LabChip EZ Reader); type: biochemical; details: CDK12 (aa686-1082)/Cyclin K 50 nM, ATP 2 mM, 3 hr at 27° C.
T1 construct: CDK12 (aa686-1082)/Cyclin K complex
How it was run: as §1

[2] = target: CDK7/Cyclin H/MAT1 complex (Homo sapiens, UniProt P50613); experiment: CDK7 kinase inhibition assay (Caliper/LabChip EZ Reader); type: biochemical; details: CDK7/Cyclin H/MAT1 6 nM, ATP 2 mM, 35 min at 27° C.
How it was run: as §1

T1 sequence (Q9NYV4 686-1082): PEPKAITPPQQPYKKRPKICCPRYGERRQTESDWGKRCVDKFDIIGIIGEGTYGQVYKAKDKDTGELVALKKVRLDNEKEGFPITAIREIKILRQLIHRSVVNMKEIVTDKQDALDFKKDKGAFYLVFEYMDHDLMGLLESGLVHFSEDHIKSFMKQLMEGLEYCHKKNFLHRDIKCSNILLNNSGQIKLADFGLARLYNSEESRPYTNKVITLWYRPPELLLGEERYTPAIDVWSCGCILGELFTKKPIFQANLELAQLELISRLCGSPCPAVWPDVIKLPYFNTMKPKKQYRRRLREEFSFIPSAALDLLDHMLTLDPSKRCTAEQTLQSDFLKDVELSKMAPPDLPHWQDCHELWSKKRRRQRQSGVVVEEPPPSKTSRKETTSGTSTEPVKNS
T1 sequence (O75909 whole entry partner, the tested form may be a part): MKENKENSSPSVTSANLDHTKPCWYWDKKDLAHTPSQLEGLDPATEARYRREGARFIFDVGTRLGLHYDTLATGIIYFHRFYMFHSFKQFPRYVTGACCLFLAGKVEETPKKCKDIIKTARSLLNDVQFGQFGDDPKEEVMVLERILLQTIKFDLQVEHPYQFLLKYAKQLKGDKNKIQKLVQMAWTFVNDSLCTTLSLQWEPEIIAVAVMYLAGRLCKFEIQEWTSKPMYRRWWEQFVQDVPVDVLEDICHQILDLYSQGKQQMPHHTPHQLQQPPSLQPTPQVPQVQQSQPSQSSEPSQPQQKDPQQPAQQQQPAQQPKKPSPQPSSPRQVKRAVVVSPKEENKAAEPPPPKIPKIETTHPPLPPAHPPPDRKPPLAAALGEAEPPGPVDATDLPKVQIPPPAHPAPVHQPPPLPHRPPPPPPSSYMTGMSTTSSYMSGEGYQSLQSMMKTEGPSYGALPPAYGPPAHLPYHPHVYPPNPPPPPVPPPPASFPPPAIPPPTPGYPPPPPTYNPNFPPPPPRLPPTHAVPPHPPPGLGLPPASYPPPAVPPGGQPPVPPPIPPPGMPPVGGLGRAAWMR
Chain of CDK9/Cyclin T1 complex (P50750 whole entry): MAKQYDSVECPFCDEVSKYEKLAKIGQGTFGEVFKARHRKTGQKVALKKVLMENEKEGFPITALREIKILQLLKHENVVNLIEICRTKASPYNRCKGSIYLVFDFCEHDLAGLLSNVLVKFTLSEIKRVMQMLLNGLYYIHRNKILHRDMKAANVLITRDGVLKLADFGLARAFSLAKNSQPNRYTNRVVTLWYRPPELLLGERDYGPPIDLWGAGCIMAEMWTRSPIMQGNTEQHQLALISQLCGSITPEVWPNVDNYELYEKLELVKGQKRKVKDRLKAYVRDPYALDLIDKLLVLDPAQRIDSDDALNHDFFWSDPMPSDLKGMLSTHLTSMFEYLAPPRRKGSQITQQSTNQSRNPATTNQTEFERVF
Chain of CDK9/Cyclin T1 complex (O60563 whole entry partner): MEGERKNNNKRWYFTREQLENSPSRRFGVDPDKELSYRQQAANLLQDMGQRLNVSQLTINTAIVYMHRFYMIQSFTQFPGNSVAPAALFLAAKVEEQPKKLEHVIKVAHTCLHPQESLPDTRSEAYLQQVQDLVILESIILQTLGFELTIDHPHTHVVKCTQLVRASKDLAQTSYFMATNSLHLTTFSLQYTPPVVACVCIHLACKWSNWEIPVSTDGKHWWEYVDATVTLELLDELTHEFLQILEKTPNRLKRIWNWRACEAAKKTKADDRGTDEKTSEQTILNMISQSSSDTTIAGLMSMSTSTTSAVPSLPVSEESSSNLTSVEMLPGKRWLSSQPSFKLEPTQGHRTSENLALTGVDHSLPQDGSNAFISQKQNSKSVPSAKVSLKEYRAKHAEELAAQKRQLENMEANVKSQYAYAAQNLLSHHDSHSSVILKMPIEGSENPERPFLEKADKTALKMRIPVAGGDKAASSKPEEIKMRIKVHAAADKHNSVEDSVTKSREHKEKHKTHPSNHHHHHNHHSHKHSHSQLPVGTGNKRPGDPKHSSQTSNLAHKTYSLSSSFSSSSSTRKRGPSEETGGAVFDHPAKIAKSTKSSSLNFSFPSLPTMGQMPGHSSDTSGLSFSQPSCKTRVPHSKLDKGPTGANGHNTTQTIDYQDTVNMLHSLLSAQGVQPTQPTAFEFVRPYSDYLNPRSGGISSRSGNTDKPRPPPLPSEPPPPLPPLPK
Chain of CDK7/Cyclin H/MAT1 complex (P50613 whole entry): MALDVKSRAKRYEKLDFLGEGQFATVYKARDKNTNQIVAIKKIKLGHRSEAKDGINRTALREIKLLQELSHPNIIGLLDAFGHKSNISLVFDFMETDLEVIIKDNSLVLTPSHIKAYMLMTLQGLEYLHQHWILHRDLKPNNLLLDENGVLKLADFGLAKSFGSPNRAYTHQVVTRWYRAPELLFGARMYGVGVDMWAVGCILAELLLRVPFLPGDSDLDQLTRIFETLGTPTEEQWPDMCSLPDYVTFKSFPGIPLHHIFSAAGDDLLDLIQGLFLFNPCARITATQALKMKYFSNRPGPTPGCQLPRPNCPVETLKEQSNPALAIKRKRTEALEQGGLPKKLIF
Chain of CDK7/Cyclin H/MAT1 complex (P51946 whole entry partner): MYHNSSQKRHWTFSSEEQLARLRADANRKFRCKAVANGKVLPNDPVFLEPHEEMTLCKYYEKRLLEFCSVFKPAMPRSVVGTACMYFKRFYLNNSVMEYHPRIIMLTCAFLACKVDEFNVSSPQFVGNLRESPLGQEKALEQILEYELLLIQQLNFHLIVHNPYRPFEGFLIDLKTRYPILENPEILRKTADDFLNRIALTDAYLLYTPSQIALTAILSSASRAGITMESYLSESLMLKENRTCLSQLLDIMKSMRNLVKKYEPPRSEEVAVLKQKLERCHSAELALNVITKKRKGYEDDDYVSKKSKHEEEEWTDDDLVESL
Chain of CDK7/Cyclin H/MAT1 complex (P51948 whole entry partner): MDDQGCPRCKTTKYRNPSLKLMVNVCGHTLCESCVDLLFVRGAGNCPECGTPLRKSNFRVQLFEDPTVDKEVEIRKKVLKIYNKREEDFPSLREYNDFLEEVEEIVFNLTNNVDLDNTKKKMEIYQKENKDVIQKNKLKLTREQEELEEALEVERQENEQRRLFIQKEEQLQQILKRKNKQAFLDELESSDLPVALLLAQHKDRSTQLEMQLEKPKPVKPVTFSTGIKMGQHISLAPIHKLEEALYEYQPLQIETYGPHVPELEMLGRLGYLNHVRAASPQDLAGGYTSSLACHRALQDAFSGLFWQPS

| IC50 (CDK9/Cyclin T1 complex) | IC50 (CDK2/Cyclin E1 complex) | IC50 [1] | IC50 [2] | SMILES | IC50 (HCC70 cells) |
| --- | --- | --- | --- | --- | --- |
| 200 to 5000 nM | 200 to 5000 nM | 200 to 5000 nM | 20 to 200 nM | CC1(O)CCN(S(=O)(=O)c2ccc3c(-c4nc(NC5CCCNC5)ncc4C(F)(F)F)c[nH]c3c2)C1 (stereo not drawn) [Compound 366] | 1000 to 5000 nM |
| 200 to 5000 nM | 200 to 5000 nM | 200 to 5000 nM | 20 to 200 nM | CC(C)S(=O)(=O)c1ccc2c(-c3nc(NC4CCCNC4)ncc3C(F)(F)F)c[nH]c2c1 (stereo not drawn) [Compound 346] | 100 to 1000 nM |
| ≥ 5000 nM | ≥ 5000 nM | ≥ 5000 nM | 20 to 200 nM | CC1CCNCC1Nc1ncc(C(F)(F)F)c(-c2c[nH]c3ccccc23)n1 (stereo not drawn) [Compound 373] | 1000 to 5000 nM |
| 200 to 5000 nM | 200 to 5000 nM | 200 to 5000 nM | < 20 nM | O=S(=O)(CF)c1ccc2c(-c3nc(NC4CCCNC4)ncc3C(F)(F)F)c[nH]c2c1 (stereo not drawn) [Compound 365] | 100 to 1000 nM |
| 200 to 5000 nM | 200 to 5000 nM | 200 to 5000 nM | < 20 nM | CN(C)S(=O)(=O)c1ccc2c(-c3nc(NC4CCCNC4)ncc3C(F)(F)F)c[nH]c2c1 (stereo not drawn) [Compound 357] | 1000 to 5000 nM |
| 200 to 5000 nM | 200 to 5000 nM | 200 to 5000 nM | < 20 nM | Cc1c(-c2ccc3c(-c4nc(NC5CCCNC5)ncc4C(F)(F)F)c[nH]c3c2)c[nH]c(=O)c1C#N (stereo not drawn) [Compound 311] | 1000 to 5000 nM |
| ≥ 5000 nM | ≥ 5000 nM | 200 to 5000 nM | < 20 nM | Cn1cc(-c2ccc3c(-c4nc(NC5CCCNC5)ncc4C(F)(F)F)c[nH]c3c2)ccc1=O (stereo not drawn) [Compound 321] | 100 to 1000 nM |
| ≥ 5000 nM | ≥ 5000 nM | 200 to 5000 nM | 20 to 200 nM | CCC1(O)CCN(C(=O)c2ccc3c(-c4nc(NC5CCCNC5)ncc4C(F)(F)F)c[nH]c3c2)C1 (stereo not drawn) [Compound 309] | 1000 to 5000 nM |
| ≥ 5000 nM | ≥ 5000 nM | ≥ 5000 nM | 20 to 200 nM | CCc1cnc(NC2CCCNC2)nc1-c1c[nH]c2c(S(=O)(=O)C(C)C)cccc12 (stereo not drawn) [Compound 356] | 100 to 1000 nM |
| ≥ 5000 nM | ≥ 5000 nM | 200 to 5000 nM | 20 to 200 nM | N#Cc1ccc2c(-c3nc(NC4CNCC(F)C4)ncc3C(F)(F)F)c[nH]c2c1 (stereo not drawn) [Compound 368] | 1000 to 5000 nM |
| ≥ 5000 nM | 200 to 5000 nM | 200 to 5000 nM | < 20 nM | OCc1ncccc1-c1ccc2c(-c3nc(NC4CCCNC4)ncc3C(F)(F)F)c[nH]c2c1 (stereo not drawn) [Compound 323] | 100 to 1000 nM |
| 200 to 5000 nM | 200 to 5000 nM | 200 to 5000 nM | 20 to 200 nM | CC(=O)NCc1cccc(-c2ccc3c(-c4nc(NC5CCCNC5)ncc4C(F)(F)F)c[nH]c3c2)c1 (stereo not drawn) [Compound 338] | 100 to 1000 nM |
| ≥ 5000 nM | 200 to 5000 nM | 200 to 5000 nM | < 20 nM | CCN1CCCC(Nc2ncc(C(F)(F)F)c(-c3c[nH]c4cc(S(C)(=O)=O)ccc34)n2)C1 (stereo not drawn) [Compound 298] | 100 to 1000 nM |
| 200 to 5000 nM | ≥ 5000 nM | 200 to 5000 nM | 20 to 200 nM | N#Cc1ccc2c(-c3nc(N[C@H]4CCCNC4)ncc3SC(F)F)c[nH]c2c1 [Compound 361] | 100 to 1000 nM |
| ≥ 5000 nM | 200 to 5000 nM | 200 to 5000 nM | < 20 nM | CP(C)(=O)c1cccc2c(-c3nc(NC4CCCNC4)ncc3C(F)(F)F)c[nH]c12 (stereo not drawn) [Compound 353] | < 100 nM |
| 200 to 5000 nM | 200 to 5000 nM | 200 to 5000 nM | < 20 nM | CNC(=O)c1ccc2c(-c3nc(NC4CCCNC4)ncc3C(F)(F)F)c[nH]c2n1 (stereo not drawn) [Compound 297] | < 100 nM |
| 200 to 5000 nM | 200 to 5000 nM | 200 to 5000 nM | < 20 nM | O=S(=O)(c1ccc2c(-c3nc(NC4CCCNC4)ncc3C(F)(F)F)c[nH]c2c1)C(F)F (stereo not drawn) [Compound 375] | 100 to 1000 nM |
| 200 to 5000 nM | 200 to 5000 nM | 200 to 5000 nM | < 20 nM | O=C(c1ccc2c(-c3nc(NC4CCCNC4)ncc3C(F)(F)F)c[nH]c2c1)N1CCC(O)(C(F)(F)F)C1 (stereo not drawn) [Compound 300] | 100 to 1000 nM |

| IC50 (CDK9/Cyclin T1 complex) | IC50 (CDK2/Cyclin E1 complex) | IC50 [1] | IC50 [2] | SMILES | IC50 (HCC70 cells) |
| --- | --- | --- | --- | --- | --- |
| ≥ 5000 nM | ≥ 5000 nM | ≥ 5000 nM | 20 to 200 nM | CN1CCC[C@H](Nc2ncc(C(F)(F)F)c(-c3c[nH]c4cc(S(C)(=O)=O)ccc34)n2)C1 [Compound 364] | 1000 to 5000 nM |
| 200 to 5000 nM | 200 to 5000 nM | 200 to 5000 nM | < 20 nM | COC1CCN(C(=O)c2ccc3c(-c4nc(NC5CCCNC5)ncc4C(F)(F)F)c[nH]c3c2)C1 (stereo not drawn) [Compound 281] | 100 to 1000 nM |
| 200 to 5000 nM | 200 to 5000 nM | 200 to 5000 nM | < 20 nM | [O-][S+](c1ccc2c(-c3nc(NC4CCCNC4)ncc3C(F)(F)F)c[nH]c2c1)C(F)F (stereo not drawn) [Compound 380] | < 100 nM |
| ≥ 5000 nM | 200 to 5000 nM | 200 to 5000 nM | < 20 nM | CC1(O)CCN(C(=O)c2ccc3c(-c4nc(N[C@H]5CCCNC5)ncc4C(F)(F)F)c[nH]c3c2)CC1 [Compound 282] | 100 to 1000 nM |
| 200 to 5000 nM | 200 to 5000 nM | 200 to 5000 nM | < 20 nM | N#Cc1ccc2c(-c3nc(N[C@@H]4CNCC[C@H]4F)ncc3C(F)(F)F)c[nH]c2c1 [Compound 351] | < 100 nM |
| 200 to 5000 nM | 200 to 5000 nM | 200 to 5000 nM | < 20 nM | Cc1noc(C)c1-c1ccc2c(-c3nc(N[C@H]4CCCNC4)ncc3C(F)(F)F)c[nH]c2c1 [Compound 330] | < 100 nM |
| 200 to 5000 nM | 200 to 5000 nM | 200 to 5000 nM | 20 to 200 nM | CC1CCNCC1Nc1ncc(C(F)(F)F)c(-c2c[nH]c3ccccc23)n1 (stereo not drawn) [Compound 372] | 100 to 1000 nM |
| 200 to 5000 nM | ≥ 5000 nM | 200 to 5000 nM | < 20 nM | N#Cc1ccc2c(-c3nc(N[C@@H]4CCC5(CCC5)NC4)ncc3C(F)(F)F)c[nH]c2c1 [Compound 377] | 100 to 1000 nM |
| 200 to 5000 nM | 200 to 5000 nM | 200 to 5000 nM | < 20 nM | O=C(c1ccc2c(-c3nc(NC4CCCNC4)ncc3C(F)(F)F)c[nH]c2c1)N1CC(O)C(F)(F)C1 (stereo not drawn) [Compound 349] | 100 to 1000 nM |
| ≥ 5000 nM | 200 to 5000 nM | 200 to 5000 nM | 20 to 200 nM | FC(F)(F)c1cnc(N[C@H]2CCCNC2)nc1-c1c[nH]c2cc(-c3cccc4cnccc34)ccc12 [Compound 344] | 100 to 1000 nM |
| ≥ 5000 nM | ≥ 5000 nM | 200 to 5000 nM | 20 to 200 nM | COC1CCN(C(=O)c2ccc3c(-c4nc(NC5CCCNC5)ncc4C(F)(F)F)c[nH]c3c2)C1 (stereo not drawn) [Compound 280] | 100 to 1000 nM |
| ≥ 5000 nM | 200 to 5000 nM | 200 to 5000 nM | < 20 nM | OCc1cccc(-c2ccc3c(-c4nc(NC5CCCNC5)ncc4C(F)(F)F)c[nH]c3c2)n1 (stereo not drawn) [Compound 316] | 100 to 1000 nM |
| 200 to 5000 nM | 200 to 5000 nM | 200 to 5000 nM | < 20 nM | OCc1cncc(-c2ccc3c(-c4nc(NC5CCCNC5)ncc4C(F)(F)F)c[nH]c3c2)c1 (stereo not drawn) [Compound 318] | 100 to 1000 nM |
| ≥ 5000 nM | ≥ 5000 nM | 200 to 5000 nM | 20 to 200 nM | CC1(C)CCC(Nc2ncc(C(F)(F)F)c(-c3c[nH]c4cc(C#N)ccc34)n2)CN1 (stereo not drawn) [Compound 350] | 100 to 1000 nM |
| ≥ 5000 nM | ≥ 5000 nM | ≥ 5000 nM | 200 to 5000 nM | Fc1cccc(-c2ccc3c(-c4nc(NC5CCCNC5)ncc4C(F)(F)F)c[nH]c3c2)c1 (stereo not drawn) [Compound 345] | 1000 to 5000 nM |
| 200 to 5000 nM | 200 to 5000 nM | 200 to 5000 nM | < 20 nM | O=C(c1ccc2c(-c3nc(NC4CCCNC4)ncc3C(F)(F)F)c[nH]c2c1)N1CCC(O)(C(F)(F)F)C1 (stereo not drawn) [Compound 299] | 1000 to 5000 nM |
| ≥ 5000 nM | ≥ 5000 nM | ≥ 5000 nM | 20 to 200 nM | CCCc1cnc(N[C@H]2CCCNC2)nc1-c1c[nH]c2c(S(C)(=O)=O)c(C#N)ccc12 [Compound 367] | 1000 to 5000 nM |
| 200 to 5000 nM | 200 to 5000 nM | 200 to 5000 nM | < 20 nM | O=C(c1ccc2c(-c3nc(NC4CCCNC4)ncc3C(F)(F)F)c[nH]c2c1)N1CC(O)C(F)(F)C1 (stereo not drawn) [Compound 308] | 100 to 1000 nM |
